The OligoGym collection
Bases are written 5' to 3'; sugars and linkages follow in the same order, as letters with counts (s phosphorothioate, o phosphodiester; PS: all linkages phosphorothioate). The collection does not say whether C is 5-methylated. l = locked nucleic acid (LNA); d = 2'-deoxy (DNA)

Target: Tau
Assay: rat primary cortical neurons, FLIPR, 25 uM ASO

Sequence	calcium oscillation score
ATTTCCAAATTCACTTTTAC (sugars lllddldddddddddlldll, PS)	110 % of control
GAATATTACACCATCC (sugars l4 d8 l4, PS)	97 % of control
TATTTCCAAATTCACTTTTA (sugars l1 d17 l2, PS)	≥ 200 % of control
GCTTCCAGTCCCGTCT (sugars l3 d10 l3, PS)	104 % of control
CAAACTTTTACTCTGAC (sugars l4 d9 l4, PS)	63.8 % of control
TCCCAGCGTGATCT (sugars l3 d8 l3, PS)	3.83 % of control
CTTTTCTTAAAGTTCAC (sugars l4 d9 l4, PS)	82.2 % of control
GCATGATTGTGGGCTT (sugars l3 d10 l3, PS)	47.4 % of control
CGTGGTCTGTCTTGGC (sugars l3 d10 l3, PS)	19 % of control
GTCCCGTCTTTGCTTT (sugars l3 d10 l3, PS)	31.3 % of control
TTTTAATTAAATTTCTCCCT (sugars l4 d13 l3, PS)	104 % of control
GCTTTTCCCAATTATTA (sugars l4 d11 l2, PS)	62 % of control
CATGTCGATGCTGCCG (sugars l3 d10 l3, PS)	67.3 % of control
TTATTTCCAAATTCACTTTT (sugars llldlddddddddddldlll, PS)	116 % of control
CTTCCAAGACTTCTCC (sugars l4 d10 l2, PS)	77.2 % of control
TCTTCCATCACTTCGAACTC (sugars l3 d14 l3, PS)	45.2 % of control
TTAATTCATAAATGACTATA (sugars l3 d14 l3, PS)	58.4 % of control
AACTTTTACTCTGACTA (sugars l4 d9 l4, PS)	51.9 % of control
CACTCTCTGCATATAT (sugars l4 d9 l3, PS)	69 % of control
ATCCAGCCATATTTCAACTC (sugars l3 d14 l3, PS)	28.2 % of control
TATTTCCAAATTCACTTTTA (sugars lldlldddddddddlddlll, PS)	76.7 % of control
CCATTTTCCATATAATTTTA (sugars l3 d14 l3, PS)	56.3 % of control

Sequence	calcium oscillation score
CTTTATTTCCAAATTCAC (sugars l5 d9 l4, PS)	104 % of control
TCCAAACTTTTACTCTG (sugars l3 d10 l4, PS)	31.2 % of control
CACTTTCCTAATTCCCAA (sugars l2 d13 l3, PS)	72.7 % of control
CATTCCCTCCAGAACCATCA (sugars l3 d14 l3, PS)	34.2 % of control
TGAATAACATTAACCC (sugars l4 d8 l4, PS)	54 % of control
TATTTCCAAATTCACTTTTA (sugars lldllddddddddddlldll, PS)	119 % of control
TCCTGGTTTATGATGG (sugars l3 d10 l3, PS)	2.3 % of control
CGCCCCACTTTTAATTA (sugars l2 d12 l3, PS)	77.2 % of control
GTTAAGTGATTAACCAATTA (sugars l3 d14 l3, PS)	84.3 % of control
AAGTCCCGAGCCAAAGCCGA (sugars l3 d14 l3, PS)	0 % of control
GCGAGTCTACCATGTC (sugars l3 d10 l3, PS)	76 % of control
CTTACCATCCTATCTTC (sugars l3 d11 l3, PS)	87 % of control
TTCCCAAATTCCTCATAATC (sugars l3 d15 l2, PS)	69.1 % of control
GGTCAACTGGTTTGTA (sugars l3 d10 l3, PS)	55.6 % of control
ATGATTGTGGGCTTAG (sugars l3 d10 l3, PS)	24.4 % of control
CGAGTCTACCATGTCGATGC (sugars l3 d14 l3, PS)	78.5 % of control
ATTTAGTTACTCATCC (sugars l4 d8 l4, PS)	72.6 % of control
CTGATCACAAACCCTGCTTG (sugars l3 d14 l3, PS)	20.3 % of control
TTTAACTCAAATCAATTCTC (sugars l4 d12 l4, PS)	65.7 % of control
ACTCAACATTACCCTTAAAT (sugars l4 d14 l2, PS)	71.5 % of control
CAGCCTACTTTATTCCC (sugars l2 d13 l2, PS)	79.2 % of control
AAAACATTCTCACCAAACCC (sugars l4 d14 l2, PS)	83.5 % of control

Sequence	calcium oscillation score
CAACTCAACATTACCCTTAA (sugars l3 d14 l3, PS)	68 % of control
CCTTGAAGTCAAGCTTCTCA (sugars l3 d14 l3, PS)	66.4 % of control
CTCTTAGCATCAGAGG (sugars l3 d10 l3, PS)	70.4 % of control
CAACTTTCATCTACTTTTCA (sugars l3 d14 l3, PS)	94.4 % of control
TATTGAACTCACCCACT (sugars l2 d11 l4, PS)	65.7 % of control
GCATCAGAGGTTTCAG (sugars l3 d10 l3, PS)	0 % of control
ATCAATTTGGAAAGATGAAA (sugars l3 d14 l3, PS)	10.4 % of control
CCCAATCTTCGACTGGACTC (sugars l3 d14 l3, PS)	31.6 % of control
TCAATTTGGAAAGATGAAAT (sugars l3 d14 l3, PS)	0 % of control
ATTTCCAAATTCACTTTTAC (sugars l4 d10 l2 d2 l2, PS)	137 % of control
GATACTCAAATTCTTCC (sugars l4 d10 l3, PS)	67.8 % of control
CACCTTTTTCCATCTTACTA (sugars l2 d16 l2, PS)	67.5 % of control
TAGTAAACACCATCTC (sugars l4 d9 l3, PS)	77.2 % of control
CTTTACCCATCTTAATTC (sugars l4 d11 l3, PS)	86.1 % of control
AATATCCTTACCATCCTATC (sugars l2 d14 l4, PS)	59.1 % of control
CTTTGAACACCCCATCTA (sugars l2 d14 l2, PS)	45.6 % of control
ATTTCCAAATTCACTTTTAC (sugars lllddldddddddddldlll, PS)	125 % of control
TTTTCTTGTTCTAACCCC (sugars l2 d13 l3, PS)	50.1 % of control
GCCTAATGAGCCACACTTGG (sugars l3 d14 l3, PS)	16.6 % of control
ACTTTATTTCCAAATTCACTTTTAC (sugars l3 d18 l4, PS)	35.4 % of control
TCTCTCTTAACTTTATTTTA (sugars l3 d13 l4, PS)	80.8 % of control
CGCCAGGGACGTGGGTGATA (sugars l3 d14 l3, PS)	0 % of control

Sequence	calcium oscillation score
CTTAGTCATCTTCCCTC (sugars l2 d13 l2, PS)	92.4 % of control
TTTGGAAAGATGAAATTTGC (sugars l3 d14 l3, PS)	7.77 % of control
CAGGCGCGAGCAGCGG (sugars l3 d10 l3, PS)	49.5 % of control
CATCCTAAGTCAACCAC (sugars l3 d11 l3, PS)	72.7 % of control
ACCTCTTAGTCATCTTCC (sugars l2 d13 l3, PS)	74.4 % of control
CTCCTGGTTTATGATGGATG (sugars l3 d14 l3, PS)	35 % of control
CCAGATTCCCCAACTC (sugars l2 d12 l2, PS)	73.3 % of control
ATTCCACACATAAACAAACA (sugars l4 d12 l4, PS)	63.8 % of control
TTAACCCTTGATCATATTTG (sugars l3 d14 l3, PS)	14.3 % of control
CATATTCTTCCCTTAATA (sugars l3 d13 l2, PS)	81.1 % of control
GATTAACCAATTAACCGAAC (sugars l3 d14 l3, PS)	98.8 % of control
ATTTCCAAATTCACTTTTAC (sugars l3 d14 l3, PS)	≥ 200 % of control
TTGTAGACTATTTG (sugars l3 d8 l3, PS)	63.3 % of control
CAACTGATTCCATCACC (sugars l4 d11 l2, PS)	87.8 % of control
TACTAGCCCACCCATCAATT (sugars l3 d14 l3, PS)	54.4 % of control
ATTCCTTTCAATGACCA (sugars l4 d11 l2, PS)	49.7 % of control
AACCACTCTAACATCTT (sugars l4 d9 l4, PS)	88.3 % of control
GTCTTGGCTTTGGCGT (sugars l3 d10 l3, PS)	20.9 % of control
TTAGCATCAGAGGTTT (sugars l3 d10 l3, PS)	23.3 % of control
ATTATTCTTTTTTTTTCCAC (sugars l3 d14 l3, PS)	15.2 % of control
ACTGGCGACTTGTACACGAT (sugars l3 d14 l3, PS)	0 % of control
CCATGTCGATGCTGC (sugars l3 d9 l3, PS)	7.14 % of control

Sequence	calcium oscillation score
TCTTACAGCCAAATGCAGTC (sugars l3 d14 l3, PS)	23.9 % of control
TGATATTGTCCAGGGACCCA (sugars l3 d14 l3, PS)	0 % of control
ACCCATCCCACAAAGAACAG (sugars l3 d14 l3, PS)	34.2 % of control
ATTTCCAAATTCACTTTTAC (sugars l5 d11 l4, PS)	78.8 % of control
GCAGGCGCGAGCAGCG (sugars l3 d10 l3, PS)	23.5 % of control
GTATCCAGCCATATTTCAAC (sugars l3 d14 l3, PS)	36.7 % of control
CTTATTGCTTTCCAATTC (sugars l2 d12 l4, PS)	83.6 % of control
CCCATCTTAATTCATTTAAT (sugars l2 d14 l4, PS)	90.1 % of control
ACTTCTAATTTAGTCAC (sugars l4 d9 l4, PS)	77.2 % of control
ATTTTACTACTCTCTTTTCT (sugars l3 d14 l3, PS)	68 % of control
ATTTCCAAATTCACTTTTAC (sugars l4 d11 l5, PS)	136 % of control
TTTAGCAGAGGAACGT (sugars l3 d10 l3, PS)	15.6 % of control
CCTTTGTAATTCCTTCTC (sugars l3 d13 l2, PS)	53.4 % of control
TGGACGTTGCTAAGAT (sugars l3 d10 l3, PS)	0 % of control
CTTGTGATGCAGGAG (sugars l3 d9 l3, PS)	87.8 % of control
CATGTCGATGCTGC (sugars l3 d8 l3, PS)	30.5 % of control
CATGATTAATTACACCC (sugars l3 d11 l3, PS)	35.5 % of control
CAGCGTGATCTTCCAT (sugars l3 d10 l3, PS)	13.4 % of control
AAGCTTCCACATTTTAC (sugars l4 d10 l3, PS)	68.4 % of control
